Experimental data: US20210255193A1, “LYSINE REACTIVE PROBES AND USES THEREOF” (The Scripps Research Institute, priority 2017, published 2021)
Values belong to the compound of their own block, whether it stands above or below them.

How the values were obtained:
Assay in all cases: competitive isoTOP-ABPP
Assay type in all cases: binding
[1] = target: T1, CDK2 Cyclin-dependent kinase 2 (Homo sapiens, UniProt P24941); conditions: 50 uM, in vitro; for isoTOP-ABPP ratio (R) at liganded lysine P24941_K33: sol, 231
T1 construct: isoTOP-ABPP experiments performed in cell lysates (in vitro); endogenous in cells; host or cells: soluble proteome of human cancer cell lines (MDA-MB-231; Ramos and Jurkat also prepared)
Summary of the method: (§1)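 Lysate + fragment (50 μM activated ester / 100 μM guanidinylating agent) or DMSO → 0.1 mM STP-alkyne, 1 h, RT → CuAAC to TEV tags (compound light, DMSO heavy) → LC-MS. R = heavy/light MS1 area; liganded lysine if R≥4.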

[2] = target: T2, SOD2 Superoxide dismutase (Homo sapiens, UniProt P04179); conditions: 50 uM, in vitro; for isoTOP-ABPP ratio (R) at liganded lysine P04179_K68: sol, 231
T2 construct: isoTOP-ABPP experiments performed in cell lysates (in vitro); endogenous in cells; host or cells: MDA-MB-231 soluble lysate
T2 sequence (P04179 25-222): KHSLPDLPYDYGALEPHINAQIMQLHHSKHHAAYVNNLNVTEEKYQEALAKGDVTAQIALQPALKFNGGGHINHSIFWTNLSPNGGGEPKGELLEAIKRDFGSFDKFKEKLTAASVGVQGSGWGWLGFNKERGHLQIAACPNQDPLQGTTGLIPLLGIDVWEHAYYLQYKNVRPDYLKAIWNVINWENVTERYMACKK
Summary of the method: as §1

[3] = target: T3, NT5DC1 5-nucleotidase domain-containing protein 1 (Homo sapiens, UniProt Q5TFE4); conditions: 50 uM, in vitro; for isoTOP-ABPP ratio (R) at liganded lysine Q5TFE4_K123: sol, 231
T3 construct: isoTOP-ABPP experiments performed in cell lysates (in vitro); endogenous in cells; host or cells: soluble proteome of human cancer cell lines (MDA-MB-231; Ramos and Jurkat also prepared)
T3 sequence (Q5TFE4 1-455): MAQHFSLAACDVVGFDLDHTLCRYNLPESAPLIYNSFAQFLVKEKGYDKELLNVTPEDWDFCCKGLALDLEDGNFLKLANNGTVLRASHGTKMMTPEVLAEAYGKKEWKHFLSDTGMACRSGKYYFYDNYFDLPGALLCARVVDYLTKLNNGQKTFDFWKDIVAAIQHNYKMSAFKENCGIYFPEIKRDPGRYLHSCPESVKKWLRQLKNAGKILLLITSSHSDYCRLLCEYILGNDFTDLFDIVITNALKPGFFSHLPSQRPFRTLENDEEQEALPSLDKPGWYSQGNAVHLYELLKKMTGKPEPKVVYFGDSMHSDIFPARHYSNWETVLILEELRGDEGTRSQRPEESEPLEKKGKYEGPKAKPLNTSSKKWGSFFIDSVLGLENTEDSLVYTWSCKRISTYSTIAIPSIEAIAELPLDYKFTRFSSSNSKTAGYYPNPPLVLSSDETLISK
Summary of the method: as §1

[4] = target: T4, IFIT3 Interferon-induced protein with tetratricopeptide (Homo sapiens, UniProt O14879); conditions: 50 uM, in vitro; for isoTOP-ABPP ratio (R) at liganded lysine O14879_K148: sol, 231; for isoTOP-ABPP reactivity ratio at lysine O14879_K148: 231 sol
T4 construct: isoTOP-ABPP experiments performed in cell lysates (in vitro); endogenous in cells; host or cells: MDA-MB-231 soluble lysate
T4 sequence (O14879 1-490): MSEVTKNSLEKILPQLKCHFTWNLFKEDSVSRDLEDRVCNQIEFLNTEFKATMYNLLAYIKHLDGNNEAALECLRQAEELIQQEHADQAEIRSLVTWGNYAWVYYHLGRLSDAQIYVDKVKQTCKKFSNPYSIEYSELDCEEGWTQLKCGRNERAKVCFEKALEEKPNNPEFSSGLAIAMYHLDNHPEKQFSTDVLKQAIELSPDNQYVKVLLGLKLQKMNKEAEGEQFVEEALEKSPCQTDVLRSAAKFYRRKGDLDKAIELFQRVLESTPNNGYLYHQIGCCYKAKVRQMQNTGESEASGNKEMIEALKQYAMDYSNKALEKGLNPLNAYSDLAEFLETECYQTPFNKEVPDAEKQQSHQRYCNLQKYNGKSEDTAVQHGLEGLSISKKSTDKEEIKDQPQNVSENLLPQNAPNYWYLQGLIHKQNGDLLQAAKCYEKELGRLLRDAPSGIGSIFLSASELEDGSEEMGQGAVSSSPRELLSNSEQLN
Summary of the method: as §1

Structure (SMILES): CC(C)(C)OC(=O)NCCCC(=O)Oc1ccc([N+](=O)[O-])cc1[N+](=O)[O-] [fragment 41, 2,4-Dinitrophenyl 4-((tert-butoxycarbonyl)amino)butanoate]
isoTOP-ABPP ratio (R) at liganded lysine P24941_K33 [1]: 1.0
isoTOP-ABPP ratio (R) at liganded lysine P04179_K68 [2]: 4.8

R value (DMSO/fragment) for probe 1 labeling ([1]; P24941_K33, 231 sol): 1.5
R value (DMSO/fragment) for probe 1 labeling ([2]; P04179_K68, 231 sol): 1.0
Structure (SMILES): Cn1cc(CC(=O)Oc2c(F)c(F)c(F)c(F)c2F)c2ccccc21 [fragment 22, Pentafluorophenyl 2-(1-methyl-1H-indol-3-yl)acetate]

Structure (SMILES): O=C(Oc1ccc([N+](=O)[O-])cc1[N+](=O)[O-])c1ccc(-c2ccccc2)cc1 [fragment 37, 2,4-Dinitrophenyl [1,1′-biphenyl]-4-carboxylate]
isoTOP-ABPP ratio (R) at liganded lysine Q5TFE4_K123 [3]: 1.8
isoTOP-ABPP ratio (R) at liganded lysine P24941_K33 [1]: 0.9
isoTOP-ABPP ratio (R) at liganded lysine P04179_K68 [2]: 1.7

Structure (SMILES): COc1cc(CCC(=O)Oc2ccc([N+](=O)[O-])cc2[N+](=O)[O-])cc(OC)c1OC [fragment 33, 2,4-Dinitrophenyl 3-(3,4,5-trimethoxyphenyl)propanoate]
isoTOP-ABPP reactivity ratio at lysine P24941_K33 ([1]; 231 sol): 0.7

Structure (SMILES): O=C(Oc1ccc([N+](=O)[O-])cc1[N+](=O)[O-])c1ccc2ccccc2n1 [fragment 35, 2,4-Dinitrophenyl quinoline-2-carboxylate]
isoTOP-ABPP ratio (R) at liganded lysine P24941_K33 [1]: 1.6

R value (DMSO/fragment) for probe 1 labeling ([3]; Q5TFE4_K123, 231 sol): 1.5
Structure (SMILES): COc1cc(CCC(=O)Oc2c(F)c(F)c(F)c(F)c2F)cc(OC)c1OC [fragment 23, Pentafluorophenyl 3-(3,4,5-trimethoxyphenyl)propanoate]

Structure (SMILES): O=C(Oc1ccc([N+](=O)[O-])cc1[N+](=O)[O-])c1ccccc1Nc1cccc(C(F)(F)F)c1 [fragment 40, 2,4-Dinitrophenyl 2-((3-(trifluoromethyl)phenyl)amino)benzoate]
isoTOP-ABPP ratio (R) at liganded lysine P24941_K33 [1]: 1.0

Structure (SMILES): O=C(Oc1ccc([N+](=O)[O-])cc1[N+](=O)[O-])c1ccc(Oc2ccccc2)cc1 [fragment 39, 2,4-Dinitrophenyl 4-phenoxybenzoate]
isoTOP-ABPP ratio (R) at liganded lysine P24941_K33 [1]: 1.0
isoTOP-ABPP ratio (R) at liganded lysine P04179_K68 [2]: 1.0
isoTOP-ABPP ratio (R) at liganded lysine O14879_K148 [4]: 1.4

isoTOP-ABPP reactivity ratio at lysine O14879_K148 [4]: 1.9
Structure (SMILES): O=C(Oc1c(F)c(F)c(F)c(F)c1F)c1ccc2ccccc2n1 [fragment 25, Pentafluorophenyl quinoline-2-carboxylate]

Structure (SMILES): O=C(Oc1ccc([N+](=O)[O-])cc1[N+](=O)[O-])C(c1ccccc1)c1ccccc1 [fragment 30, 2,4-Dinitrophenyl 2,2-diphenylacetate]
isoTOP-ABPP reactivity ratio at lysine P04179_K68 ([2]; 231 sol): 1.1

Structure (SMILES): O=C(Oc1ccc([N+](=O)[O-])cc1[N+](=O)[O-])c1cc(C(F)(F)F)cc(C(F)(F)F)c1 [fragment 31, 2,4-Dinitrophenyl 3,5-bis(trifluoromethyl)benzoate]
isoTOP-ABPP reactivity ratio at lysine P04179_K68 ([2]; 231 sol): 1.5

isoTOP-ABPP reactivity ratio at lysine P04179_K68 ([2]; 231 sol): 0.9
isoTOP-ABPP reactivity ratio at lysine O14879_K148 [4]: 0.9
Structure (SMILES): O=C(CN1C(=O)c2ccccc2C1=O)Oc1c(F)c(F)c(F)c(F)c1F [fragment 27, Pentafluorophenyl 2-(1,3-dioxoisoindolin-2-yl)acetate]

Structure (SMILES): CC(=O)Oc1ccc([N+](=O)[O-])cc1[N+](=O)[O-] [fragment 43, 2,4-Dinitrophenyl acetate]
isoTOP-ABPP ratio (R) at liganded lysine P04179_K68 [2]: 1.4

Structure (SMILES): O=C(Oc1ccc([N+](=O)[O-])cc1[N+](=O)[O-])C(c1ccccc1)(c1ccccc1)c1ccccc1 [fragment 42, 2,4-Dinitrophenyl 2,2,2-triphenylacetate]
isoTOP-ABPP ratio (R) at liganded lysine Q5TFE4_K123 [3]: 0.6
isoTOP-ABPP ratio (R) at liganded lysine P24941_K33 [1]: 0.9
isoTOP-ABPP ratio (R) at liganded lysine O14879_K148 [4]: 0.8
